Legend:
[1] = target: T1, DGAT-1 enzyme (Homo sapiens, UniProt O75907); assay: DGAT-1 enzyme inhibition, phase partitioning assay (PPA), 96-well; assay type: biochemical; details: recombinant DGAT-1 produced in Sf9 insect cells; 1,2-di(cis-9-octadecenoyl)-sn-glycerol and octanoylCoA; read-out: IC50, concentration that inhibits 50% of the activity of DGAT-1
T1 construct: made in house; host or cells: Sf9 insect cells (baculovirus)
T1 sequence (O75907 1-488): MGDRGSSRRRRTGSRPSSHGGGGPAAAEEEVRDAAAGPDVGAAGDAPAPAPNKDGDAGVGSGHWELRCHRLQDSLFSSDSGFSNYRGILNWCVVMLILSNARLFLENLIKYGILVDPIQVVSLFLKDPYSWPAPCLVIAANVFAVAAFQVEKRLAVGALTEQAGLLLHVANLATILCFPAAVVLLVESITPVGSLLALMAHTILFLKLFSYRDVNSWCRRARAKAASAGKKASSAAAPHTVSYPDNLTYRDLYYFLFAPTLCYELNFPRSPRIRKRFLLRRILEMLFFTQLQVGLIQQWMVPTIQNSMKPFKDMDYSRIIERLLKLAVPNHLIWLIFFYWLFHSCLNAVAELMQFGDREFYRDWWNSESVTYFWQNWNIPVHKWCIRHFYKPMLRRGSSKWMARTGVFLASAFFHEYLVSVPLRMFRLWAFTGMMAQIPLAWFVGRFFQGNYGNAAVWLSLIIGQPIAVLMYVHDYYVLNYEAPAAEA
Description: The recombinant DGAT-1 protein was produced in Sf9 insect cells transfected with a baculovirus. The reaction was carried out by incubating the enzyme in the presence of 1,2-di(cis-9-octadecenoyl)-sn-glycerol and octanoylCoA. The amount of triacylglycerol formed during the reaction is measured. […] The radioactivity is measured using a MicroBeta counter (Perkin Elmer).

[2] = tested on: triglyceride biosynthesis in Chang liver cells; assay: Inhibition of triglyceride biosynthesis in Chang liver cells ([14C] glycerol incorporation); details: read-out: inhibitory activity on triglyceride biosynthesis, concentration that inhibits 50% of the activity
Description: These trials consisted in measuring the in vitro inhibitory activity of the compounds of the invention on a cell test.
Chang liver cells at 80% confluence are detached with trypsin-EDTA, 4 ml per 175 cm^2 flask. After centrifugation at 1300×g for 5 minutes, the cell pellet is washed once with PBS and then resuspended in whole medium. The number of cells and their viability are determined on Mallassez cells via the exclusion method with trypan blue.
150 000 cells are inoculated per well into a 24-well plate for a minimum of 3 h in DMEM medium 4.5 g/l of glucose supplemented with 10% FCS and with antibiotics, and are maintained at 37° C. in an incubator with CO2 (5%).
After 3 h, the cells have adhered, the medium is removed and replaced overnight with DMEM medium 4.5 g/l of glucose with 2% of BSA/oleate.
Next, the cell membranes are destroyed by sonication on a water bath, for 30 minutes. […] The radioactivity is measured using a Flo One C625TR machine (Perkin-Elmer).
The inhibitory activity on triglyceride biosynthesis is given by the concentration that inhibits 50% of the activity.

IC50 [1] | melting point | SMILES | IC50 [2]
5700 nM | 250 to 255 °C | CC(C)(c1ccccc1)c1noc(NC(=O)c2ccc(O[C@H]3CC[C@@H](C(=O)O)CC3)cc2)n1 [Compound 7] | 
2210 nM | 210 °C | O=C(O)/C=C/[C@H]1CC[C@H](c2ccc(C(=O)Nc3nc(Cc4ccccc4)no3)cc2)CC1 [Compound 3c, (E)-3-{4-[4-(3-benzyl[1.2.4]oxadiazol-5-ylcarbamoyl)phenyl]cyclohexyl}acrylic acid] | 
7180 nM | 319 to 322 °C | COc1ccc(-c2ccc(NC(=O)c3ccc(O[C@H]4CC[C@@H](C(=O)O)CC4)cc3)nn2)cc1 [Compound 12, cis-4-{4-[6-(4-methoxyphenyl)pyridazin-3-ylcarbamoyl]phenoxy}-cyclohexanecarboxylic acid] | 
81 nM | 205 to 210 °C | O=C(Nc1nc(Cc2ccccc2)no1)c1ccc(O[C@H]2CC[C@@H](C(=O)O)CC2)nc1 [Compound 10, cis-4-[5-(3-benzyl[1.2.4]oxadiazol-5-ylcarbamoyl)pyridin-2-yloxy]-cyclohexanecarboxylic acid] | 
5910 nM | 259 to 261 °C | O=C(Nc1ccc(Nc2ccccc2)nn1)c1ccc(O[C@H]2CC[C@@H](C(=O)O)CC2)cc1 [Compound 11, cis-4-[4-(6-phenylaminopyridazin-3-ylcarbamoyl)phenoxy]cyclohexanecarboxylic acid] | 
51 nM |  | O=C(Nc1ccc(NC2CCCC2)nn1)c1ccc(O[C@H]2CC[C@@H](C(=O)O)CC2)cc1 [Compound 9, cis 4-[4-(6-cyclopentylaminopyridazin-3-ylcarbamoyl)phenoxy]-cyclohexanecarboxylic acid] | 
927 nM | 193 °C | O=C(O)CC[C@H]1CC[C@H](c2ccc(C(=O)Nc3nc(Cc4ccccc4)no3)cc2)CC1 [Compound 3d, trans-3-{4-[4-(3-benzyl[1.2.4]oxadiazol-5-ylcarbamoyl)phenyl]cyclohexyl}propionic acid] | 
890 nM |  | O=C(O)CC1CCC(c2ccc(C(=O)Nc3ccc(Cc4ccccc4)nn3)cc2)CC1 (stereo not drawn) [Compound 3, {4-[4-(6-benzylpyridazin-3-ylcarbamoyl)phenyl]cyclohexyl}acetic acid] | 
742 nM | 187 °C | O=C(Nc1nc(Cc2ccccc2)no1)c1ccc(C2CCC(C3CC3C(=O)O)CC2)cc1 (stereo not drawn) [Compound 3b, trans-2-{4-[4-(3-benzyl[1.2.4]oxadiazol-5-ylcarbamoyl)phenyl]cyclohexyl}cyclopropanecarboxylic acid] | 
3760 nM | 215 to 222 °C | O=C(Nc1nc(C2(c3ccccc3)CC2)no1)c1ccc(O[C@H]2CC[C@@H](C(=O)O)CC2)cc1 [Compound 6, cis-4-{4-[3-(1-phenylcyclopropyl)[1.2.4]oxadiazol-5-ylcarbamoyl]phenoxy}-cyclohexanecarboxylic acid] | 

SMILES | IC50 [1] | melting point | IC50 [2]
O=C(Nc1nc(COc2ccccc2)no1)c1ccc(O[C@H]2CC[C@@H](C(=O)O)CC2)cc1 [Compound 8, cis-4-[4-(3-phenoxymethyl[1.2.4]oxadiazol-5-ylcarbamoyl)phenoxy]cyclohexanecarboxylic acid] | 94 nM | 210 to 212 °C | 319 nM

From patent US20130137691A1, “DERIVATIVES OF OXADIAZOLE AND PYRIDAZINE, THEIR PREPARATION AND THEIR APPLICATION IN THERAPEUTICS” (SANOFI, priority 2010, published 2013)
